# Results published in patent US20240002491A1, “METHODS FOR SELECTING PATIENTS FOR TREATMENT WITH AN NGF ANTAGONIST” (Regeneron Pharmaceuticals, Inc., priority 2022, published 2024).
# Test system: adults with moderate-to-severe chronic pain associated with osteoarthritis (OA) of the knee or hip
# Experiment: FACT OA1 (NCT03161093, R475-OA-1611) Phase 3 trial, WOMAC pain and physical function
# Type: in vivo, human
# Conditions: FACT OA1, Week 16; fasinumab 1 mg Q4W, naproxen 2 × 500 mg/day
# Text: NCT02683239 (R475-PN-1523, or “FACT LTS”), NCT03161093 (R475-OA-1611, or “FACT OA1”), and NCT03304379 (R475-OA-1688, or “FACT OA2”) each were Phase 3 trials evaluating fasinumab in adults with moderate-to-severe chronic pain associated with osteoarthritis (OA) of the knee or hip. All three of these trials enrolled patients with OA of the knee or hip who had inadequate pain relief with acetaminophen and were intolerant to or had inadequate pain relief with opioids, or were unwilling or unable to take opioids. Complete inclusion and exclusion criteria for the trials are described at clinicaltrials.gov/ct2/show/NCT03161093, clinicaltrials.gov/ct2/show/NCT03304379, and clinicaltrials.gov/ct2/show/NCT02683239.
# FACT OA1 and FACT OA2 assessed the efficacy of fasinumab in comparison to nonsteroidal anti-inflammatory drugs (NSAIDs; naproxen, diclofenac, or celecoxib) for treatment of OA. FACT OA1 includes results from a total of 1,801 patients randomized to one of four treatment arms: fasinumab 1 mg SC once every 8 weeks (Q8W) (n=304), fasinumab 1 mg SC once every 4 weeks (Q4W) (n=639), naproxen 500 mg twice daily (n=644), or placebo (n=214). In FACT OA2, patients were randomized into one of six treatment groups: fasinumab 1 mg SC once every 4 weeks (Q4W), fasinumab 3 mg SC once every 4 weeks (Q4W), fasinumab 6 mg SC once every 8 weeks (Q8W), celecoxib 200 mg once daily, diclofenac 75 mg twice daily, or placebo. While the FACT OA2 trial was still ongoing, enrollment into the fasinumab 3 mg Q4W and 6 mg Q8W groups was stopped for safety considerations; patients enrolled in those dose regimens discontinued study drug and entered the post-treatment follow-up period.
# Fasinumab patients in both trials also reported improvements in their pain and physical function (WOMAC score) compared to those treated with the highest-approved prescription doses of NSAIDS.
structure (smiles),measurement,value
"COc1ccc2cc([C@H](C)C(=O)O)ccc2c1 [Naproxen, naproxen, reference compound]","WOMAC pain, change from baseline",−33%
same,"WOMAC pain, change from baseline (score, in brackets)",(−2.13)
same,"WOMAC physical function, change from baseline",−31%
same,"WOMAC physical function, change from baseline (score, in brackets)",(−1.98)
